One may read the IC50 as the point on the concentration scale where inhibition reaches its midpoint. Higher therefore signals lower potency.

This is an account of results in publication PMC7851395 (British Journal of Cancer, 2020).

Series [1] has as its system NSCLC cells (PC-9, A549 or H460). As to the kind of experiment: cells. The format is cell-based, human. The conditions noted are these: Supplementary Table 1, cell line (PC-9, A549 or H460) not assignable. On the procedure:
(§1) The cytotoxicity and viability of human NSCLC cells and normal cells were determined by MTT assay. MTT assay was performed as described previously.[22] MTT assay was used to determine the cell cytotoxicity and viability in human NSCLC cells. Cells (5 × 10^3 cells/well) were plated in 96-well plates and attached overnight. After the proper treatment, the MTT solution was added at 25 µL/well and incubated at 37 °C for 4 h. The formazan crystals were dissolved in 150 µL of DMSO, and the optical density (OD) was measured using a Microplate Reader at 490 nm. The cell viability was calculated by the following formula: viability = (average OD values of treatment wells/average OD values of vehicle control wells) × 100%. And half-maximal inhibitory concentration (IC50) values were determined by GraphPad Pro Prism 7.0.

For series [2], the system named is NIH mice. As to the kind of experiment: Acute toxicity test. The format is in vivo. The conditions noted are these: 30 mg/kg single intraperitoneal injection, observed 14 days, n = 10. On the procedure: In the acute toxicity test, 30 NIH mice (female, 8 weeks old) were randomly divided into three groups (n = 10), including vehicle group, bufalin group (30 mg/kg) and acetyl-bufalin group (30 mg/kg). The three groups received intraperitoneal injection only on the first day. All the mice were housed under 12 h light–dark cycles at 25 °C and free for water and diet. […] All the mice were sacrificed by cervical dislocation.

Series [3] relates to H460 cells. The series can be described thus: MTT cytotoxicity assay, H460 cells. It counts as cell-based. The conditions noted are these: Homo sapiens, NCI-H460. On the procedure: as §1
(In general: Tetrazolium dyes change colour on reduction, which living cells bring about.)

The subject of series [4] is H460 xenograft. It counts as in vivo, BALB/c nude mice. The conditions noted are these: 2 mg/kg i.p. every other day, compared with vehicle. The method, then: All animal procedures were done accordingly with the Institutional laboratory animal research guidelines and were approved by Wenzhou Medical University Animal Policy and Welfare Committee. Female athymic BALB/c nude mice (5–6 weeks old) and immune-defective non-obese […] diabetic severe combined immunodeficiency (NOD-SCID) mice (6–8 weeks old) were purchased from the Vital River Experimental Animal Center (Beijing, China). All the mice were housed under 12 h light–dark cycles at 25 °C and free for water and diet. For the xenograft model, the H460 cells (5 × 10^6 cells were mixed with an equal volume of PBS and Matrigel in 100 μL) were implanted on the hind flank of nude mice. Once tumour volumes reached ~50 mm^3, 24 mice were divided into four experimental groups (six mice per group, no differences in mean body weights or tumour volumes between the groups) and intraperitoneal injection with 2 mg/kg SNS-032 (a recognised CDK9 inhibitor), bufalin and acetyl-bufalin every other day. Tumour volume was measured as V = (L × W × W)/2, in which L and W represent the length and width of tumour. Animals were killed by cervical dislocation once the tumour volume reached 1000 mm^3. The tumours, hearts, livers, kidneys and lungs were removed for use in the histology and western blot analysis.

The nature of series [5]: Pharmacokinetic study in rat plasma (LC-MS/MS). The format is in vivo, S.D. rats. The conditions noted are these: 0.25 mg/kg i.v. and 2 mg/kg i.p. On the procedure: For the pharmacokinetic study, female S.D. rats (body weight 200 ± 10 g) have fasted overnight with free access to water before the experiment. Twelve rats were randomly divided into four groups. The time schedule included eight timepoints, and three S.D. rats were sampled at each time-point. Bufalin and acetyl-bufalin were administered intravenously and intraperitoneally to the rats at the dose of 0.25 mg/kg and 2 mg/kg, respectively. The animals had free access to water during the experiment. Blood samples were collected from the retro-orbital plexus of each rat at 0.083, 0.25, 0.5, 1, 2, 4, 6, 8, 12, 24 h after administration. Plasma was separated from the blood after centrifugation at 6000×g for 10 min and frozen at −20 °C until analysis. In total, 20 µL of standard samples in duplicate, quality control samples in duplicate and rat plasma samples were mixed with 60 µL of ethyl acetate containing IS (200 ng/mL of tolbutamide, 50 ng/mL of propranolol and 500 ng/mL of Dic) in EP tubes. After the mixture was vortexed for 1 min, then centrifuged for 10 min (13,000 rpm, 4 °C), transferred 50 µL supernatant to a 96-well plate with 150 µL purred water, shacked for 10 min and finally injected 5 µL into liquid chromatographic-tandem mass spectrometry (LC-MS/MS) system for analysis.

Series [6] concerns PC-9 cells. As to the kind of experiment: MTT cytotoxicity assay, PC-9 cells. It counts as cell-based. The conditions noted are these: Homo sapiens. On the procedure:
as §1

The test system of series [7] is A549 cells. The series can be described thus: MTT cytotoxicity assay, A549 cells. The format is cell-based. The conditions noted are these: Homo sapiens, A549. The method, then: as §1
For series [8], the system named is P-CDK9, CDK9, P-STAT3 and S2 RNAPII. The series can be described thus: Western blot of CDK9/STAT3 pathway proteins. The conditions noted are these: H460 and PC-9 cells, 12 h; acetyl-bufalin 25-200 nM, SNS-032 200 nM. It counts as cell-based, human. On the procedure: Tissue proteins were extracted with tissue protein lysate buffer. Cells were grown to different densities and extracted with cell protein lysate buffer. The protein was mixed with loading buffer and boiled for 10 min at 100 °C, then loaded and separated by 10% or 12% sodium dodecyl sulfate-polyacrylamide gel (SDS-PAGE) and then transferred onto a PVDF membrane blocking with 5% skim milk. The blots were incubated overnight with specific primary antibodies at 4 °C. On the second day, after washing with TBST (a mixture of tris-buffered saline (TBS) and Tween 20) three times, the […] membranes were incubated with horseradish peroxidase-conjugated secondary antibodies for 1 h. The immunoreactive bands were visualised with enhanced chemiluminescence reagent.
In general terms: In western blotting, separated proteins are transferred to a membrane and probed.

The target in series [9] is T1, CDK9 (Homo sapiens, UniProt P50750).
T1 construct: GST (N); purchased CDI Laboratories, Baltimore, MD Arrayit HuProt v2.0 19 K Human Proteome Microarrays
T1 sequence (P50750 whole entry): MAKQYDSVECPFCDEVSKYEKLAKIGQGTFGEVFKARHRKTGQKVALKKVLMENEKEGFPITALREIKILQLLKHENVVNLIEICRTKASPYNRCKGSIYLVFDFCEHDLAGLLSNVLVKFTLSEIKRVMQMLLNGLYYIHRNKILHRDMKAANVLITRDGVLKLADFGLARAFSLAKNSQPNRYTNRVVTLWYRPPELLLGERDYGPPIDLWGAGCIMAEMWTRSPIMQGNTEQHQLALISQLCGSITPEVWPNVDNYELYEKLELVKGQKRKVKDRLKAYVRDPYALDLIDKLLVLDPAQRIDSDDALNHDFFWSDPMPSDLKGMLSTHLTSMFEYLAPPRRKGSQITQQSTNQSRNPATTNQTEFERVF
The series can be described thus: HuProt human proteome microarray binding. The conditions noted are these: 10 μM on HuProt microarray, CDK9 spots. The method, then:
Arrayit HuProt™ v2.0 19 K Human Proteome Microarrays (CDI Laboratories, Baltimore, MD) were blocked for 1 h with 3% BSA at room temperature. Biotinylated bufalin was diluted to 10 μM in blocking buffer and cultured on the proteome microarray at room temperature for 1 h. The arrays were washed with PBST (a mixture of PBS and Tween 20) and incubated with Cy3-Streptavidin at 1:1000 dilution (Sigma-Aldrich) for 1 h at room temperature. Finally, the microarray was spun dry and scanned with a GenePix 4200 A microarray scanner (Molecular Devices, San Jose, CA). Data were analysed by GenePix Pro 6.0 software. The signal-to-noise ratio (SNR) was defined as the ratio of median foreground value minus median background value. The cut-off value of SNR (>1.1) was set.

Regarding `CC(=O)O[C@H]1[C@H]2O[C@]23[C@@H]2CC[C@@H]4C[C@@H](O)CC[C@]4(C)[C@H]2CC[C@]3(C)[C@H]1c1ccc(=O)oc1` [Cinobufagin], in [1] (Homo sapiens), half-maximal inhibition (IC50) required 414 nM.

As to `C[C@]12CC[C@H](O)C[C@H]1CC[C@@H]1[C@@H]2CC[C@]2(C)[C@@H](c3ccc(=O)oc3)CC[C@]12O` [bufalin, reference compound], the “mortality (mice died)” value in [2] is 10/10. In addition, the IC50 came out at 64.7 nM in series [3]; 141 nM in series [6] (PC-9, 48 h); 83.2 nM in series [7]. Besides, in series [4], the “tumour growth (weight and volume)” value is “significantly inhibited tumour growth”. The absorption entry in [5] is recorded as “fast absorption”.

The compound `CC(=O)O[C@H]1[C@H]2O[C@]23[C@@H]2CC[C@]4(O)C[C@@H](O)CC[C@]4(C)[C@H]2CC[C@]3(C)[C@H]1c1ccc(=O)oc1` [Cinobufotalin] showed a concentration for half-maximal inhibition (IC50) in series [1] (Homo sapiens) of 587 nM.

In series [1] (Homo sapiens), `CC(=O)O[C@H]1C[C@]2(O)[C@@H]3CC[C@@H]4C[C@@H](O)CC[C@]4(C)[C@H]3CC[C@]2(C)[C@H]1c1ccc(=O)oc1` [Bufotalin] returned an IC50 of 813 nM.

On to `CC(C)(C)c1cnc(CSc2cnc(NC(=O)C3CCNCC3)s2)o1` [SNS-032, reference compound], for which the “P-CDK9, CDK9, P-STAT3 and S2 RNAPII expressions” value in [8] is on record as “significantly dose-dependently decreased”. The “tumour growth (weight and volume)” value in series [4] is recorded as “significantly inhibited tumour growth”.

As to Resibufagin, in series [1], the IC50 was determined as 16000 nM.

Take `C[C@]12CC[C@H](OC(=O)CCCC[C@@H]3SC[C@@H]4NC(=O)N[C@@H]43)C[C@H]1CC[C@@H]1[C@@H]2CC[C@]2(C)[C@H](c3ccc(=O)oc3)CC[C@@]12O` [bio-bufalin]: in series [9], the “signal-to-noise ratio (SNR)” value is 6.748. Besides, in [6] (PC-9, 48 h), the IC50 turned out to be 77.1 nM.

Take `C[C@]12CC[C@H](O)C[C@H]1CC[C@@H]1[C@@H]2CC[C@]2(C)[C@@H](c3ccc(=O)oc3)C[C@H]3O[C@]132` [Resibufogenin]: the IC50 in series [3] is 1060 nM; in series [6] (PC-9) it was 4640 nM; in [7], 1130 nM.
